Test results from ChEMBL document CHEMBL3507680, “University of Dundee, Gates Library screen for HepG2 cell viability”.

Test: Human HepG2 cell viability assay in 384 well format
Assay type: toxicity, cell-based
Design: dose 125 nL, time 70.5 hour; cytotoxicity at 70.5 h: concentration not given beside the values
Details: HepG2 cells, read-out: Inhibition

## CCOC(=O)c1cnn(-c2cc(Oc3ccccc3)ncn2)c1N
  cytotoxicity at 70.5 h: 3.77%

## O=C(CN1CCCC1)Nc1c2c(cc3c1CCC3)CCC2
  cytotoxicity at 70.5 h: -4.72%

## CNC(C)Cc1ccccc1Sc1ccc(O)cc1 (configuration not stated)
  cytotoxicity at 70.5 h: -8.32%

## CCOC(=O)c1cnn(-c2cc(Oc3ccccc3C)ncn2)c1N
  cytotoxicity at 70.5 h: 23.9%

## COc1cccc2c3c(c(=O)[nH]c12)CC(C)(C)O3
  cytotoxicity at 70.5 h: -6.98%

## CCS(=O)(=O)N1CCCC2(COCCN(c3nncs3)C2)C1 (configuration not stated)
  cytotoxicity at 70.5 h: -2.49%

## Cc1cnc(C(=O)N2CCC3(CC2)C(=O)NCCN3CC(C)C)cn1
  cytotoxicity at 70.5 h: -2.5%

## COc1cc(C2CC(=O)Nc3c2c(=O)[nH]n3C2CCCC2)ccc1O (configuration not stated)
  cytotoxicity at 70.5 h: -2.72%

## O=C1CCCN1Cc1noc(-c2ccc(Cl)cc2)n1
  cytotoxicity at 70.5 h: -6.78%

## CCc1ccc(NC(=O)CC2Cn3ncnc3NC2=O)cc1 (configuration not stated)
  cytotoxicity at 70.5 h: -16.3%

## CCOc1ccc(NC(=O)c2cc3c([nH]c2=O)CCC3)cc1
  cytotoxicity at 70.5 h: -13.3%

## Cc1ccc(NC(=O)CC2Cn3ncnc3NC2=O)cc1C (configuration not stated)
  cytotoxicity at 70.5 h: -8.36%

## CCOCCCNC(=O)CN(c1cc(C)cc(C)c1)S(C)(=O)=O
  cytotoxicity at 70.5 h: -14.2%

## CC(C)n1c(=O)c2sccc2n(CC(=O)Nc2ccccc2)c1=O
  cytotoxicity at 70.5 h: -11%

## Cc1n[nH]c2c1C(c1ccc3c(c1)OCO3)SCC(=O)N2 (configuration not stated)
  cytotoxicity at 70.5 h: 25.4%

## CC(C)CN1CCn2c(nc3cc(C(=O)NC(C)C)ccc32)C1
  cytotoxicity at 70.5 h: -11.8%

## CCOc1ccc(C2SCC(=O)Nc3c2c(=O)[nH]n3C(CC)CC)cc1 (configuration not stated)
  cytotoxicity at 70.5 h: -6.79%

## O=C(Cc1csc(-c2ccccc2)n1)N[C@@H](C(=O)O)c1ccccc1
  cytotoxicity at 70.5 h: -9.17%

## CSC1=Nc2c(cnn2-c2ccc(C)cc2)C2=NCCCN12
  cytotoxicity at 70.5 h: -10.1%

## CSC1=Nc2c(cnn2-c2ccccc2)C2=NCCCN12
  cytotoxicity at 70.5 h: -8.98%

## CC(C)C(NC(=O)Cn1nc2c(cc1=O)CCCC2)C(=O)O (configuration not stated)
  cytotoxicity at 70.5 h: -13.5%

## O=C(Cn1nc2c(cc1=O)CCCC2)NC(C(=O)O)c1ccccc1 (configuration not stated)
  cytotoxicity at 70.5 h: -12.2%

## CC1=Nc2c(c(O)nn2C(C)C)C(c2cn(C)nc2C)S1 (configuration not stated)
  cytotoxicity at 70.5 h: 21%

## Cc1ccc(-c2[nH][nH]c(=O)c2CCN)cc1
  cytotoxicity at 70.5 h: -14.2%

## Cc1ccc(-c2[nH]c3ccccc3c2C(=O)O)c(C)c1
  cytotoxicity at 70.5 h: -4.63%

## Cc1cccc(NC(=O)c2csc(NCC(C)C)n2)n1
  cytotoxicity at 70.5 h: -14.8%

## O=C(CSC1CCc2ccccc2NC1=O)Nc1ccc(CCO)cc1 (configuration not stated)
  cytotoxicity at 70.5 h: -1.18%

## O=C(O)C1CCN(C(=O)Cn2ccc3c(Cl)cccc32)CC1
  cytotoxicity at 70.5 h: -12.6%

## CC(=O)N1CCN(C(=O)Cn2ccc3c(Cl)cccc32)CC1
  cytotoxicity at 70.5 h: -16.8%

## CC(C)OCCCNC(=O)C1CCCN(c2ccc3nncn3n2)C1 (configuration not stated)
  cytotoxicity at 70.5 h: -9.82%

## O=C(O)CSC1CCc2ccccc2NC1=O (configuration not stated)
  cytotoxicity at 70.5 h: -14.7%

## CC(C)n1[nH]c(=O)c2c1NC(=O)CC2c1cccc(O)c1 (configuration not stated)
  cytotoxicity at 70.5 h: -9.65%

## O=C1CC(c2ccccc2)c2sc(C(=O)O)c(-c3ccccc3)c2N1 (configuration not stated)
  cytotoxicity at 70.5 h: -8.23%

## COc1ccc(NC(=O)Cn2cc(-c3ccccc3)ncc2=O)cn1
  cytotoxicity at 70.5 h: -6.77%

## O=C(Cn1cc(-c2ccccc2)ncc1=O)Nc1nccs1
  cytotoxicity at 70.5 h: 7.52%

## O=C(Cn1c(=O)nc2n1C(=O)N(c1ccccc1)C2)NC1CCCCC1
  cytotoxicity at 70.5 h: -7.65%

## CCOC(=O)N1CCN(C(=O)c2sc(-c3ccncc3)nc2C)CC1
  cytotoxicity at 70.5 h: 23.5%

## CC(C)NC(=O)Cn1cc(-c2ccccc2)ncc1=O
  cytotoxicity at 70.5 h: -7.17%

## CCNS(=O)(=O)c1cnccc1N1CCN(CCO)CC1
  cytotoxicity at 70.5 h: 4.82%

## NC(=O)CSc1nnc2n1N=CN(c1ccccc1F)C2
  cytotoxicity at 70.5 h: -6.75%

## O=c1c2cn[nH]c2nc(SCCN2CCOCC2)n1-c1ccccc1
  cytotoxicity at 70.5 h: -7.75%

## O=S(=O)(Cc1ccc(Br)cc1)NCCO
  cytotoxicity at 70.5 h: -0.457%

## Cc1nn(S(=O)(=O)c2ccc(Cl)cc2)c(C)c1C
  cytotoxicity at 70.5 h: 38.4%

## CC(=O)c1c(C)nn(S(=O)(=O)c2ccccc2)c1C
  cytotoxicity at 70.5 h: 3.79%

## CCOC1Sc2nnc(C)n2N=C1c1ccc(Cl)cc1 (configuration not stated)
  cytotoxicity at 70.5 h: -8.8%

## CCc1nn(-c2cc(Oc3ccccc3)nc(C)n2)c(N)c1C#N
  cytotoxicity at 70.5 h: 2.22%

## Cc1ccccc1S(=O)(=O)N(C)[C@@H]1CC[C@@H](n2ccnc2C)[C@@H]1O
  cytotoxicity at 70.5 h: 53.4%

## Cc1noc(C)c1CC(=O)N[C@@H]1CC[C@@H](Oc2ccccc2)[C@@H]1O
  cytotoxicity at 70.5 h: -3.35%

## Cc1nccn1-c1nccnc1C1CCCN(C)C1 (configuration not stated)
  cytotoxicity at 70.5 h: -4.67%

## CNc1ccc(C2CN(c3cc(C)ncn3)CCO2)nc1 (configuration not stated)
  cytotoxicity at 70.5 h: 1.5%

## Cc1ccnc(C2CCN(CCCOc3ccccc3F)C2)n1 (configuration not stated)
  cytotoxicity at 70.5 h: -1.63%

## Cc1cc(-c2ccnn2C)nc(C2CCN(S(C)(=O)=O)CC2)n1
  cytotoxicity at 70.5 h: -4.75%

## Cc1ccccc1CC(=O)NCc1cnc(CC2CCN(C)CC2)cn1
  cytotoxicity at 70.5 h: -4.57%

## CN([C@@H]1CC[C@@H](N2CCCC2)[C@@H]1O)S(=O)(=O)c1ccccc1
  cytotoxicity at 70.5 h: 24.7%

## O=S(=O)(c1cn[nH]c1)N1CCC(O)(CN2CCOCC2)C1 (configuration not stated)
  cytotoxicity at 70.5 h: 4.95%

## CCC(=O)N1CCC(c2ncc(C(=O)Nc3ccccc3)c(C)n2)C1 (configuration not stated)
  cytotoxicity at 70.5 h: -3.38%

## O=C(c1ccncc1)N1CCCC(C2=Nc3ccccc3S(=O)(=O)N2)C1 (configuration not stated)
  cytotoxicity at 70.5 h: -3.07%
